The source of these data is US20250346613A1, “BORIC ACID PROTEASOME INHIBITOR AND USE THEREOF” (ARTIVILA BIOPHARMA, priority 2022, published 2025).

The structures appear in SMILES notation.

The conditions of series [1]: background statement; cannot be used orally; cited from earlier work.
A short description of series [2]: Blood concentration measurement of orally-administrated mice. It is filed as in vivo, C57BL/6JNifdc mice. Conditions: C57BL/6JNifdc, mouse, plasma, oral, 30 mg/kg. The procedure: The C57BL/6JNifdc mice used in this experiment were provided by Zhejiang Vital River Laboratory Animal Technology Co., Ltd. The compounds were dissolved in DMSO/Solutol/Saline (v/v/v=10/10/80) as a stock solution (3 mg/mL). The stock solution was administrated orally to 6 C57BL/6JNifdc mice at a dose of 30 mg/kg. Blood was collected from the orbital venous plexus at 0.5 h, 1 h, 1.5 h, and 2 h after oral administration.
Approximately 200 μL of blood samples were collected into EDTAK2 Blood Collection tubes and then immediately centrifuged at 10,000 rpm for 5 min. 66 μL of plasma supernatant was added with 198 μL of acetonitrile (Energy), the resulting mixture was shaken on a vortex for 5 min, and then immediately centrifuged at 13000 rpm for 8 min. 200 μL of supernatant was taken for blood compound concentration measurement.
The compound was accurately weighed and dissolved in acetonitrile to a concentration of 100 μg/mL. 50 μL of compound was pipetted and added to 4.95 mL of acetonitrile/water (v/v=3/1) solution to obtain 1000 ng/mL mother liquid. 650 μL of the mother liquid was taken and sequentially diluted with a solution of acetonitrile/water (v/v=3/1) in a 2-fold gradient to obtain standard samples with various concentrations of 500 ng/mL, 250 ng/mL, 125 ng/mL, 62.5 ng/mL, and 31.25 ng/mL.
Standard solutions with concentrations of 1000 ng/mL, 500 ng/mL, 250 ng/mL, 125 ng/mL, 62.5 ng/mL, and 31.25 ng/mL were measured by using LC-MS (LC-MS 2020+LC-2030 Plus, Shimadzu) SIM mode to obtain a calibration curve. The treated blood samples were measured by this method and then subjected to quantitative analysis by using the calibration curve to obtain compound concentration data of each treated blood sample.
The data were exported and the average blood compound concentration at each sampling time was calculated.
Blood compound concentration=compound concentration in treated blood sample×4/molecular weight of the compound. The average blood compound concentration is the average of the compound concentrations in the blood at each sampling time.

The target of series [3] is T1, β5c subunit of the 20S proteasome (Homo sapiens, UniProt P20618+P28074).
T1 construct: The proteasome tested in the present disclosure was derived from Raji cells; endogenous in cells; host or cells: Raji cells
Kind of series: Proteasome inhibitory activity, β5c subunit (Raji cells treated with compound, lysed, Suc-LLVY-AMC substrate). Particulars: proteasome from Raji cells incubated with compound 4 h. It is filed as cell-based. The source says:
In the present disclosure, the fluorescent peptide substrate Ac-Ala-Asn-Trp-AMC (abbreviated as Ac-ANW-AMC) and the […] kit containing a fluorescent peptide substrate Suc-Leu-Leu-Val-Tyr-AMC (abbreviated as Suc-LLVY-AMC) (Promega, Item No. G8660) were used to detect the activities of the β5i subunit and β5c subunit of the 20S proteasome, respectively.
The proteasome tested in the present disclosure was derived from Raji cells, the fluorescent substrate Ac-ANW-AMC was purchased from Roche company, and other reagents were purchased from Sigma company. The experimental system was divided into two parts of cell lysis system and enzyme reaction system. […] The starting concentration of the compound (inhibitor) was 1 μM. It was diluted in a 3-fold serial dilution to a total of 8 concentrations, that is, the administration concentration can be 1 μM, 0.333 μM, 0.111 μM . . . , respectively, and the specific experimental process was described below.
Raji cells (1×10^6 cells) cryopreserved in liquid nitrogen were thawed rapidly in a water bath at 37° C. The cell pellet was transferred to a 15 mL centrifuge tube, added with 9 mL of fresh medium (Gibco RPMI1640 added with 10% fetal bovine serum and 1% double antibiotics), centrifuged at 120 g for 5 min, inoculated to 25 mL cell culture flasks, and passaged once every 2-3 days.
The compound was weighed and dissolved in DMSO to a concentration of 10 mM. The compound was then sequentially diluted to concentrations of 200 μM, 66.67 μM, 22.22 μM, 7.41 μM, 2.47 μM, 0.82 μM, 0.27 μM, and 0.091 μM with fresh medium. Raji cells in a good growth status were inoculated into a 48-well cell culture plate at 7×10^5 cells/mL.
Raji cells in a good growth status were taken and counted. They were then inoculated to a 48-well cell culture plate at 7×10^5 cells/mL. Each 5 μL of the various concentrations of diluted compounds above were taken and added to the culture plate inoculated with cells, and the lowest concentration of compound was 0 μM. The drug bortezomib (Velcade) and ONX-0914 were used as the positive control compounds. All cells were incubated at 37° C. for 4 h.
The compound-treated cells were sequentially transferred into 1.5 mL centrifuge tubes, centrifuged at 10000 rpm for 2 min, and the supernatants were removed. The cell pellet was resuspended in 1 mL of PBS, centrifuged at 10000 rpm for 2 min, and the supernatant was removed. Cells were resuspended by adding 100 μL of cell lysate (50 mM Tris of pH 7.5, 150 mM NaCl, 5 mM MgCl2, 5 mM ATP, 1 mM DTT, 0.01% NP-40, 1 mM Digitonin, and Cocktail), placed in an ice bath for 30 min, and centrifuged at 13000 rpm for 10 min.
2 mg of fluorescent peptide substrate AC-ANW-AMC was dissolved in 424.7 μL of DMSO to obtain an 8 mM stock solution, and stored at −20° C. The stock solution was diluted 100-fold to a final concentration of […] for use in the reaction system. The fluorescent peptide substrate Suc-LLVY-AMC was prepared according to the instructions of the Promega kit.
Each 20 μL of the prepared proteasome solution above was added to a 96-well white luciferase microplate and added with 25 μL of AC-ANW-AM substrate buffer solution (50 mM Tris of pH 7.5, 150 mM NaCl, 5 mM MgCl2, 5 mM ATP, 80 uM Ac-ANW-AMC and 1 mM DTT) and 25 μL of Suc-LLVY-AMC substrate buffer solution for 10 min of reaction at 37° C. in the dark. Fluorescence values were read at 345 nm/445 nm by using a fluorence microplate reader.
The data were exported and the inhibition rate in percentage was calculated according to the following formula: Inhibition rate=(maximum signal value-compound signal value)/(maximum signal value−blank signal value)×100%.
Where the maximum signal was obtained from cell lysates treated with DMSO only, and the blank signal was obtained from wells containing only lysates.

The target in series [4] is T2, β5i subunit of the 20S proteasome (Homo sapiens, UniProt P20618+P28062).
T2 construct: The proteasome tested in the present disclosure was derived from Raji cells; endogenous in cells; host or cells: Raji cells
Kind of series: Proteasome inhibitory activity, β5i subunit (Raji cells treated with compound, lysed, Ac-ANW-AMC substrate). Conditions: proteasome from Raji cells incubated with compound 4 h. Type of series: cell-based. In outline: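 Raji cells were treated for 4 h at 37 °C with compound (from 1 μM, 3-fold, 8 concentrations), then lysed. Lysate activity was read 10 min at 37 °C with Ac-ANW-AMC (β5i) or Suc-LLVY-AMC (β5c) at 345/445 nm. Percent inhibition was relative to DMSO-treated lysate.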

A further series concerns MM.1S cell strain. Kind of series: Inhibitory activity of cell strain (CellTiter-Glo). Type of series: cell-based. Conditions: Homo sapiens, MM1.S, 72 h incubation. Put shortly:
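Cells seeded at 1×10^5 per well in RPMI1640 complete medium for 24 h, then treated 72 h at 37 °C, 5% CO2 with 3-fold dilutions, final 5×10^−7 M down to 2.29×10^−10 M. CellTiter-Glo luminescence; inhibition calculated against DMSO-only cells and medium-only blanks.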

Consider `CC(C)C[C@H](NC(=O)[C@H](Cc1ccccc1)NC(=O)c1cnccn1)B(O)O` [Bortezomib, bortezomib, reference compound], for which the “bioavailability (oral)” value in series [1] is given as “low bioavailability”. Also, in series [2] (0.5 h, read-out: Average blood compound concentration (μM) 0.5 h), the concentration at 0.5 h was 2 µM. For the same molecule, the concentration at 1 h in series [2] (1.0 h, read-out: Average blood compound concentration (μM) 1.0 h) was found to be 1.3 µM. For the same molecule, the concentration at 1.5 h in series [2] (1.5 h, read-out: Average blood compound concentration (μM) 1.5 h) came to 1 µM. In addition, in series [2] (2.0 h, read-out: Average blood compound concentration (μM) 2.0 h), the concentration at 2 h worked out at 0.9 µM.

For orientation: IC50 means the concentration needed to halve the response being measured. `COc1cccc(CNC(=O)C(C(=O)N[C@@H](Cc2coc3ccccc23)B(O)O)C(C)C)c1` (stereo partly drawn) [Example 75, ((1R)-2-(benzofuran-3-yl)-1-(2-((3-methoxybenzyl)carbamoyl)-3-methylbutanamido)ethyl)boric acid]: the IC50 (in series [3]; in series [4]; in the series on MM.1S cell strain) was at most 50 nM in each case.

With `CC(C(=O)NCc1cccc(C(F)(F)F)c1)C(=O)N[C@@H](Cc1coc2ccccc12)B(O)O` (stereo partly drawn) [Example 77, ((1R)-2-(benzofuran-3-yl)-1-(2-methyl-3-oxo-3-((3-(trifluoromethyl)benzyl)amino)propionamido)ethyl)boric acid], the IC50 (in series [3]; in series [4]; in the series on MM.1S cell strain) was at most 50 nM each time.

Regarding `COc1cccc(CNC(=O)C(CC2CC2)C(=O)N[C@@H](Cc2ccc(C)cc2)B(O)O)c1` (stereo partly drawn) [Example 80, ((1R)-1-(2-(cyclopropylmethyl)-3-((3-methoxybenzyl)amino)-3-oxopropionamido)-2-(p-tolyl)ethyl)boric acid], the IC50 (in series [3]; in series [4]; with MM.1S cell strain) was at most 50 nM each time.

Turning to `COc1cccc(CNC(=O)C(CC2CC2)C(=O)N[C@@H](Cc2coc3ccccc23)B(O)O)c1` (stereo partly drawn) [Example 81, ((1R)-2-(benzofuran-3-yl)-1-(2-(cyclopropylmethyl)-3-((3-methoxybenzyl)amino)-3-oxopropionamido)ethyl)boric acid], the IC50 (in series [3]; in series [4]; with MM.1S cell strain) was at most 50 nM in each case.

Consider `COc1cccc(CNC(=O)C(CC2CCCCC2)C(=O)N[C@@H](Cc2ccc(C)cc2)B(O)O)c1` (stereo partly drawn) [Example 83, ((1R)-1-(2-(cyclohexylmethyl)-3-((3-methoxybenzyl)amino)-3-oxopropionamido)-2-(p-tolyl)ethyl)boric acid], for which the IC50 is 50 to 200 nM in series [3], at most 50 nM in series [4] and above 500 nM with MM.1S cell strain.

As to `COc1cccc(CNC(=O)C(CC2CCCCC2)C(=O)N[C@@H](Cc2coc3ccccc23)B(O)O)c1` (stereo partly drawn) [Example 84, ((1R)-2-(benzofuran-3-yl)-1-(2-(cyclohexylmethyl)-3-((3-methoxybenzyl)amino)-3-oxopropionamido)ethyl)boroic acid], the IC50 (in series [3]; in series [4]; in the series with MM.1S cell strain) was at most 50 nM in each case.

On to `COc1cccc(CNC(=O)C(C(=O)N[C@@H](Cc2ccc(C)cc2)B(O)O)C(C)C)c1` (stereo partly drawn) [Example 87, ((1R)-1-(2-((3-methoxybenzyl)carbamoyl)-3-methylbutanamido)-2-(p-tolyl)ethyl)boric acid], for which the IC50 (in series [3]; in series [4]; in the series with MM.1S cell strain) was at most 50 nM throughout.

For `Cc1ccc(C[C@H](NC(=O)C(C(=O)NCc2ccc(Cl)cc2Cl)C(C)C)B(O)O)cc1` (stereo partly drawn) [Example 88, ((1R)-1-(2-((2,4-dichlorobenzyl)carbamoyl)-3-methylbutanamido)-2-(p-tolyl)ethyl)boric acid], the IC50 is 50 to 200 nM in series [3], at most 50 nM in series [4] and 50 to 200 nM in the series on MM.1S cell strain.

Regarding `CC(C)C(C(=O)NCc1ccc(Cl)cc1Cl)C(=O)N[C@@H](Cc1coc2ccccc12)B(O)O` (stereo partly drawn) [Example 89, ((1R)-2-(benzofuran-3-yl)-1-(2-((2,4-dichlorobenzyl)carbamoyl)-3-methylbutanamido)ethyl)boric acid], the IC50 (in series [3]; in series [4]; in the series with MM.1S cell strain) was at most 50 nM throughout.

For `Cc1ccc(C[C@H](NC(=O)C(Cc2ccccc2)C(=O)NCc2ccc3[nH]ccc3c2)B(O)O)cc1` (stereo partly drawn) [Example 90, ((1R)-1-(3-(((1H-indol-5-yl)methyl)amino)-2-benzyl-3-oxopropionamido)-2-(p-tolyl)ethyl)boric acid], the IC50 (in series [3]; in series [4]; with MM.1S cell strain) was at most 50 nM each time.

Turning to `O=C(NCc1ccc2[nH]ccc2c1)C(Cc1ccccc1)C(=O)N[C@@H](Cc1coc2ccccc12)B(O)O` (stereo partly drawn) [Example 91, ((1R)-1-(3-(((1H-indol-5-yl)methyl)amino)-2-benzyl-3-oxopropionamido)-2-(benzofuran-3-yl)ethyl)boric acid], the IC50 was 50 to 200 nM in series [3], at most 50 nM in series [4] and at most 50 nM in the series with MM.1S cell strain.

For the molecule `Cc1ccc(C[C@H](NC(=O)C(C)C(=O)NCc2cccc(C(F)(F)F)c2)B(O)O)cc1` (stereo partly drawn) [Example 92, ((1R)-1-(2-methyl-3-oxo-3-((3-(trifluoromethyl)benzyl)amino)propionamido)-2-(p-tolyl)ethyl)boric acid], the half-maximal inhibitory concentration (IC50) (in series [3]; in series [4]; in the series with MM.1S cell strain) was at most 50 nM throughout.
